Test results as given in patent US20230210813A1, “METHODS AND PHARMACEUTICAL COMPOSITIONS FOR THE TREATMENT OF CHRONIC KIDNEY DISEASE” (INSERM (INSTITUTE NATIONAL DE LA SANTÉ ET DE LA RECHERCHE …, priority 2020, published 2023).

Columns and labels:
Ins2Akita mice (DKD) [1] = experiment: DMAPT versus ramipril treatment of diabetic Ins2Akita mice (second series, FIG. 1); assay type: in vivo, mouse; conditions: for urinary albumin/creatinine ratio (ACR): 10 mg/kg/d for 2 months from 2 months of age, vs untreated DKD, FIG. 1A; for glomerular injury (PAS staining) / glomerular area / fibrosis (Masson trichrome staining) / glycemia / body weight: 10 mg/kg/d for 2 months; for glomerular injury (PAS staining): FIG. 1B; for glomerular area: FIG. 1C; for fibrosis (Masson trichrome staining): FIG. 1D; for glycemia: FIG. 1E; for body weight: FIG. 1F
Procedure: (§1) Male C57BL/6-Ins2Akita/J (Ins2Akita) and C57BL/6J (WT) mice (Charles River) were housed with unrestricted access to water and were maintained on a 12-h light-dark cycle in a pathogen-free environment on standard mouse chow. All experiments were conducted in accordance with the Guide for the care and use of laboratory animals of the National Institute of Health, eighth edition and the French Institute of Health guidelines for the care and use of laboratory animals. The project was approved by the local (Inserm/UPS US006 CREFRE) and national ethics committees (ethics committee for animal experiment, CEEA122; Toulouse, France; approval 02867.01).
(§2) In a first series of experiments, 2 months old mice were treated with or without ACEi ramipril (10 mg/kg/d in drinking water) for 2 months. In a second series of experiments 2 months old mice were treated with or without ACEi ramipril as in the first series or with dimethylaminoparthenolide monofumarate (DMAPT, 10 mg/kg/d by gavage) for 2 months. In each series of experiments, urine was collected in metabolic cages for 12 h, few days before sacrifice.
Right kidney cortexes were fixed in Carnoy's solution for 24 h, dehydrated in successive baths with increasing alcohol concentrations, embedded in paraffin and 2 μm sections were cut and mounted, and stained with either periodic acid-Schiff (PAS) or Masson trichrome. Stained sections were scanned using a Nanozoomer 2.0 RS (Hamamatsu Photonics SARL) and treated with the Morpho-expert image-analysis software (version 1.00, Explora Nova) for renal corpuscle surface quantification. At least 50 glomeruli including superficial and […] cortical area, were examined for each animal. The extent of glomerular injury was expressed as the percentage of glomerular area fraction occupied by PAS positive matrix^3.
(§3) Urinary albumin concentration was measured by ELISA using the AlbuWell kit (WAK-Chemie Medical GmbH, Steinbach, Germany). Urinary creatinine concentration was measured by the colorimetric method of Jaffe according to the protocol Creatinine Assay Kit (Bio Assay Systems). Blood glucose levels were measured in caudal blood from fasted awake mice using a glucometer (Glucometer Elite XL; Bayer Healthcare, Elkhart, Ind.).
(§4) Comparison between 2 groups of values was implemented using a two-tailed unpaired Welch's t-tests. Comparison between more than 2 groups, was implemented using an ordinary one-way ANOVA followed by Homl-Sidak's multiple comparisons test was used. P<0.05 was considered statistically significant. For the proteomic data the P values were adjusted for the false discovery rate (Benjamini-Hochberg).

[2] = cited from earlier work
[3] = fumarate salt; cited from earlier work
[4] = tested on: histone deacetylase (HDAC); conditions: independent of NF kappa B; cited from earlier work
[5] = tested on: NF kappa B transcription factor complex; conditions: cited from earlier work
[6] = tested on: immune glomerulonephritis in rat; conditions: cited from earlier work
[7] = tested on: type 2 diabetic db/db mice; conditions: cited from earlier work
patients with cancer = conditions: Phase I, standardized doses; cited from earlier work
Ins2Akita mice (DKD) [8] = experiment: Ramipril treatment of diabetic Ins2Akita mice (first series); assay type: in vivo, mouse
Procedure: as §1, §2, §3, §4

[9] = ramipril 10 mg/kg/d in drinking water for 2 months

| Structure (SMILES) | urinary albumin/creatinine ratio (ACR) (Ins2Akita mice (DKD) [1]) | glomerular injury (PAS staining) (Ins2Akita mice (DKD) [1]) | glomerular area (Ins2Akita mice (DKD) [1]) | fibrosis (Masson trichrome staining) (Ins2Akita mice (DKD) [1]) | glycemia (Ins2Akita mice (DKD) [1]) | body weight (Ins2Akita mice (DKD) [1]) | water-solubility [2] | oral bioavailability [3] | HDAC activity [4] | activity of the NF kappa B transcription factor complex [5] | proteinuria and renal injury [6] | renal inflammation and insulin resistance [7] | tolerability / dose-limiting toxicity (patients with cancer) | body weight (Ins2Akita mice (DKD) [8]; [9]) | glycemia (Ins2Akita mice (DKD) [8]; [9]) | ACR (Ins2Akita mice (DKD) [8]; ramipril 10 mg/kg/d in drinking water from 2 months of age for 2 months) |
| --- | --- | --- | --- | --- | --- | --- | --- | --- | --- | --- | --- | --- | --- | --- | --- | --- |
| C/C1=C/CC[C@@]2(C)O[C@@H]2[C@H]2OC(=O)[C@H](CN(C)C)[C@@H]2CC1 [DMAPT, (4E,8S)-8-[(dimethylamino)methyl]-2,3,6,7,7aS,8,10aS,10bR-octahydro-1aR,5-dimethyl-oxireno[9,10]cyclodeca[1,2-b]furan-9(1aH)-one] | significant reduction | significantly reduced | tended to reduce glomerular area without reaching significance | significantly reduced | Neither glycemia (FIG. 1E) nor body weight (FIG. 1F) were significantly influenced | Neither glycemia (FIG. 1E) nor body weight (FIG. 1F) were significantly influenced | water-soluble | orally bioavailable | inhibit histone deacetylase (HDAC) activity |  |  |  |  |  |  |  |
| C=C1C(=O)O[C@@H]2[C@H]3O[C@]3(C)CC/C=C(\C)CC[C@@H]12 [parthenolide, (1aR,4E,7aS,10aS,10bR)-2,3,6,7,7a,8,10a,10b-octahydro-1a,5-dimethyl-8-methylene-oxireno[9,10]cyclodeca[1,2-b]furan-9(1aH)-one] |  |  |  |  |  |  | poor water-solubility |  |  | inhibiting the activity | beneficial impact | able to alleviate renal inflammation and insulin resistance | well tolerated without dose-limiting toxicity |  |  |  |
| CCOC(=O)[C@H](CCc1ccccc1)N[C@@H](C)C(=O)N1[C@H](C(=O)O)C[C@@H]2CCC[C@@H]21 [ramipril] | significant reduction | no significant influence | no significant influence | no significant influence | Neither glycemia (FIG. 1E) nor body weight (FIG. 1F) were significantly influenced | Neither glycemia (FIG. 1E) nor body weight (FIG. 1F) were significantly influenced |  |  |  |  |  |  |  | no influence | slightly but significantly reduced | significantly reduced |
